Reference: PubChem BioAssay (NCI)
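Assay format: 96-well plates, 48-hour exposure. GI50 marks 50% less growth. TGI marks complete inhibition of growth.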

Tests used:
Assay in all cases: inhibition of tumour cell growth, NCI panel, 48 h
A498 renal = system: A498 renal
SF-295 CNS = system: SF-295 CNS
MOLT-4 leukemia = system: MOLT-4 leukemia
U251 CNS = system: U251 CNS
NCI-H23 lung = system: NCI-H23 lung
SK-MEL-28 melanoma = system: SK-MEL-28 melanoma
HCT-116 colon = system: HCT-116 colon
NCI-H522 lung = system: NCI-H522 lung
OVCAR-3 ovarian = system: OVCAR-3 ovarian
SR leukemia = system: SR leukemia
M14 melanoma = system: M14 melanoma
BT-549 breast = system: BT-549 breast
HCT-15 colon = system: HCT-15 colon
RPMI-8226 leukemia = system: RPMI-8226 leukemia
OVCAR-5 ovarian = system: OVCAR-5 ovarian
MDA-MB-231 breast = system: MDA-MB-231 breast
DU-145 prostate = system: DU-145 prostate
KM12 colon = system: KM12 colon
NCI-H460 lung = system: NCI-H460 lung
COLO 205 colon = system: COLO 205 colon
OVCAR-4 ovarian = system: OVCAR-4 ovarian
SF-268 CNS = system: SF-268 CNS
UACC-62 melanoma = system: UACC-62 melanoma
HOP-92 NSCLC = system: HOP-92 NSCLC
LOX IMVI melanoma = system: LOX IMVI melanoma
OVCAR-8 ovarian = system: OVCAR-8 ovarian
SK-OV-3 ovarian = system: SK-OV-3 ovarian
NCI/ADR-RES ovarian = system: NCI/ADR-RES ovarian
UO-31 renal = system: UO-31 renal
HS 578T breast = system: HS 578T breast
MDA-MB-435 = system: MDA-MB-435
TK-10 renal = system: TK-10 renal
MALME-3M melanoma = system: MALME-3M melanoma
SW-620 colon = system: SW-620 colon
PC-3 prostate = system: PC-3 prostate
T-47D breast = system: T-47D breast
SK-MEL-5 melanoma = system: SK-MEL-5 melanoma
SK-MEL-2 melanoma = system: SK-MEL-2 melanoma
HT29 colon = system: HT29 colon
HL-60(TB) leukemia = system: HL-60(TB) leukemia
HCC-2998 colon = system: HCC-2998 colon
A549 NSCLC = system: A549 NSCLC
SNB-19 CNS = system: SNB-19 CNS
EKVX NSCLC = system: EKVX NSCLC
UACC-257 melanoma = system: UACC-257 melanoma
SNB-75 CNS = system: SNB-75 CNS
CAKI-1 renal = system: CAKI-1 renal
NCI-H226 lung = system: NCI-H226 lung
K-562 leukemia = system: K-562 leukemia
CCRF-CEM leukemia = system: CCRF-CEM leukemia
IGROV1 ovarian = system: IGROV1 ovarian
SN12C renal = system: SN12C renal
HOP-62 NSCLC = system: HOP-62 NSCLC
ACHN renal = system: ACHN renal
RXF 393 renal = system: RXF 393 renal
MCF7 breast = system: MCF7 breast
786-0 renal = system: 786-0 renal
SF-539 CNS = system: SF-539 CNS

With `Cc1ccccc1-n1c(/C=C\c2ccccn2)nc2ccccc2c1=O` as the compound, how does the GI50 (A498 renal) read?
Its GI50 is 9.47 µM.

And the TGI (A498 renal)?
The TGI was 70.6 µM.

And the GI50 (SF-295 CNS)?
Its GI50 is 6.76 µM.

What about the TGI (SF-295 CNS) of the same compound?
Its TGI is 47.3 µM.

What about the GI50 (MOLT-4 leukemia) of the same compound?
The GI50 was 6.16 µM.

What about the TGI (MOLT-4 leukemia) of the same compound?
Its TGI is 27.7 µM.

And the GI50 (U251 CNS)?
Its GI50 is 11 µM.

What about the TGI (U251 CNS) of the same compound?
The TGI was 25.8 µM.

What about the GI50 (NCI-H23 lung) of the same compound?
Its GI50 is 6.06 µM.

What about the TGI (NCI-H23 lung) of the same compound?
Its TGI is 57.4 µM.

What about the GI50 (SK-MEL-28 melanoma) of the same compound?
Its GI50 is 18.4 µM.

And the TGI (SK-MEL-28 melanoma)?
Its TGI is 39.8 µM.

And the GI50 (HCT-116 colon)?
Its GI50 is 6.87 µM.

What about the TGI (HCT-116 colon) of the same compound?
The TGI was 22 µM.

What about the GI50 (NCI-H522 lung) of the same compound?
Its GI50 is 5.7 µM.

What about the TGI (NCI-H522 lung) of the same compound?
The TGI was 39.1 µM.

What about the GI50 (OVCAR-3 ovarian) of the same compound?
The GI50 was 6.75 µM.

What about the TGI (OVCAR-3 ovarian) of the same compound?
The TGI was 53.6 µM.

And the GI50 (SR leukemia)?
The GI50 was 3.05 µM.

What about the TGI (SR leukemia) of the same compound?
Its TGI is 20.4 µM.

What about the GI50 (M14 melanoma) of the same compound?
Its GI50 is 14.2 µM.

What about the TGI (M14 melanoma) of the same compound?
The TGI was 33.9 µM.

And the GI50 (BT-549 breast)?
The GI50 was 7.44 µM.

What about the TGI (BT-549 breast) of the same compound?
The TGI was 22.3 µM.

What about the GI50 (HCT-15 colon) of the same compound?
The GI50 was 7.39 µM.

And the TGI (HCT-15 colon)?
Its TGI is 37.2 µM.

What about the GI50 (RPMI-8226 leukemia) of the same compound?
Its GI50 is 2.51 µM.

What about the TGI (RPMI-8226 leukemia) of the same compound?
Its TGI is 15 µM.

What about the GI50 (OVCAR-5 ovarian) of the same compound?
Its GI50 is 19.5 µM.

What about the TGI (OVCAR-5 ovarian) of the same compound?
Its TGI is over 100 µM.

And the GI50 (MDA-MB-231 breast)?
The GI50 was 4.69 µM.

What about the TGI (MDA-MB-231 breast) of the same compound?
Its TGI is 59.2 µM.

What about the GI50 (DU-145 prostate) of the same compound?
The GI50 was 3.4 µM.

What about the TGI (DU-145 prostate) of the same compound?
The TGI was 11.3 µM.

What about the GI50 (KM12 colon) of the same compound?
Its GI50 is 11.1 µM.

And the TGI (KM12 colon)?
Its TGI is 27.9 µM.

And the GI50 (NCI-H460 lung)?
The GI50 was 9.29 µM.

What about the TGI (NCI-H460 lung) of the same compound?
The TGI was 42.1 µM.

And the GI50 (COLO 205 colon)?
The GI50 was 9.65 µM.

And the TGI (COLO 205 colon)?
The TGI was 28.5 µM.

And the GI50 (OVCAR-4 ovarian)?
The GI50 was 18.1 µM.

And the TGI (OVCAR-4 ovarian)?
Its TGI is over 100 µM.

What about the GI50 (SF-268 CNS) of the same compound?
The GI50 was 15.2 µM.

What about the TGI (SF-268 CNS) of the same compound?
Its TGI is over 100 µM.

What about the GI50 (UACC-62 melanoma) of the same compound?
The GI50 was 14.2 µM.

What about the TGI (UACC-62 melanoma) of the same compound?
Its TGI is 45 µM.

What about the GI50 (HOP-92 NSCLC) of the same compound?
The GI50 was 3.32 µM.

What about the TGI (HOP-92 NSCLC) of the same compound?
The TGI was 67.1 µM.

And the GI50 (LOX IMVI melanoma)?
The GI50 was 15 µM.

And the TGI (LOX IMVI melanoma)?
Its TGI is 37 µM.

What about the GI50 (OVCAR-8 ovarian) of the same compound?
Its GI50 is 21.4 µM.

What about the TGI (OVCAR-8 ovarian) of the same compound?
The TGI was over 100 µM.

And the GI50 (SK-OV-3 ovarian)?
The GI50 was 35.3 µM.

What about the TGI (SK-OV-3 ovarian) of the same compound?
Its TGI is over 100 µM.

What about the GI50 (NCI/ADR-RES ovarian) of the same compound?
Its GI50 is 7.16 µM.

And the TGI (NCI/ADR-RES ovarian)?
The TGI was 79.5 µM.

What about the GI50 (UO-31 renal) of the same compound?
Its GI50 is 7.51 µM.

And the TGI (UO-31 renal)?
The TGI was over 100 µM.

And the GI50 (HS 578T breast)?
The GI50 was 15.5 µM.

And the TGI (HS 578T breast)?
The TGI was over 100 µM.

And the GI50 (MDA-MB-435)?
The GI50 was 8.23 µM.

What about the TGI (MDA-MB-435) of the same compound?
The TGI was 53 µM.

And the GI50 (TK-10 renal)?
Its GI50 is 32.6 µM.

What about the TGI (TK-10 renal) of the same compound?
Its TGI is over 100 µM.

What about the GI50 (MALME-3M melanoma) of the same compound?
The GI50 was 18.8 µM.

And the TGI (MALME-3M melanoma)?
Its TGI is 42.1 µM.

What about the GI50 (SW-620 colon) of the same compound?
The GI50 was 13.2 µM.

What about the TGI (SW-620 colon) of the same compound?
Its TGI is 56.2 µM.

What about the GI50 (PC-3 prostate) of the same compound?
Its GI50 is 6.41 µM.

What about the TGI (PC-3 prostate) of the same compound?
Its TGI is 65.4 µM.

What about the GI50 (T-47D breast) of the same compound?
Its GI50 is 5.99 µM.

What about the TGI (T-47D breast) of the same compound?
Its TGI is 64.8 µM.

What about the GI50 (SK-MEL-5 melanoma) of the same compound?
The GI50 was 9.61 µM.

And the TGI (SK-MEL-5 melanoma)?
The TGI was 22.6 µM.

And the GI50 (SK-MEL-2 melanoma)?
The GI50 was 14.4 µM.

And the TGI (SK-MEL-2 melanoma)?
Its TGI is 38.5 µM.

And the GI50 (HT29 colon)?
Its GI50 is 19.7 µM.

And the TGI (HT29 colon)?
Its TGI is over 100 µM.

And the GI50 (HL-60(TB) leukemia)?
The GI50 was 6.12 µM.

What about the TGI (HL-60(TB) leukemia) of the same compound?
Its TGI is over 100 µM.

And the GI50 (HCC-2998 colon)?
The GI50 was 15.9 µM.

And the TGI (HCC-2998 colon)?
The TGI was 29.9 µM.

And the GI50 (A549 NSCLC)?
Its GI50 is 26 µM.

What about the TGI (A549 NSCLC) of the same compound?
Its TGI is over 100 µM.

And the GI50 (SNB-19 CNS)?
Its GI50 is 32.1 µM.

And the TGI (SNB-19 CNS)?
The TGI was over 100 µM.

And the GI50 (EKVX NSCLC)?
Its GI50 is 23.7 µM.

And the TGI (EKVX NSCLC)?
The TGI was over 100 µM.

What about the GI50 (UACC-257 melanoma) of the same compound?
The GI50 was 31 µM.

And the TGI (UACC-257 melanoma)?
Its TGI is over 100 µM.

And the GI50 (SNB-75 CNS)?
Its GI50 is 16.9 µM.

And the TGI (SNB-75 CNS)?
The TGI was over 100 µM.

And the GI50 (CAKI-1 renal)?
The GI50 was 3.32 µM.

And the TGI (CAKI-1 renal)?
Its TGI is 16.9 µM.

What about the GI50 (NCI-H226 lung) of the same compound?
Its GI50 is 28.8 µM.

And the TGI (NCI-H226 lung)?
The TGI was over 100 µM.

And the GI50 (K-562 leukemia)?
Its GI50 is 4.42 µM.

What about the TGI (K-562 leukemia) of the same compound?
The TGI was 90.2 µM.

What about the GI50 (CCRF-CEM leukemia) of the same compound?
The GI50 was 4.24 µM.

And the TGI (CCRF-CEM leukemia)?
The TGI was 30.1 µM.

What about the GI50 (IGROV1 ovarian) of the same compound?
Its GI50 is 13.2 µM.

And the TGI (IGROV1 ovarian)?
The TGI was 63.9 µM.

What about the GI50 (SN12C renal) of the same compound?
Its GI50 is 21.2 µM.

What about the TGI (SN12C renal) of the same compound?
The TGI was over 100 µM.

What about the GI50 (HOP-62 NSCLC) of the same compound?
The GI50 was 47.4 µM.

And the TGI (HOP-62 NSCLC)?
Its TGI is over 100 µM.

And the GI50 (ACHN renal)?
Its GI50 is 12.8 µM.

And the TGI (ACHN renal)?
The TGI was over 100 µM.

And the GI50 (RXF 393 renal)?
Its GI50 is 4.33 µM.

What about the TGI (RXF 393 renal) of the same compound?
Its TGI is 20 µM.

What about the GI50 (MCF7 breast) of the same compound?
Its GI50 is 10.1 µM.

What about the TGI (MCF7 breast) of the same compound?
The TGI was 58.7 µM.

What about the GI50 (786-0 renal) of the same compound?
The GI50 was 20.6 µM.

What about the TGI (786-0 renal) of the same compound?
The TGI was 64.4 µM.

What about the GI50 (SF-539 CNS) of the same compound?
Its GI50 is 18.6 µM.

And the TGI (SF-539 CNS)?
Its TGI is 55 µM.
